Test results as given in patent US5648336A (University of Colorado, priority 1994, dated 1997).
Read-outs that look alike come from different tables or passages of the source. Square brackets hold non-standard residues; d marks the D form. Peptide text beside a SMILES is read from it. * marks the point of attachment. Adamantane1carbonyl = O=C(C12CC3CC(CC(C3)C1)C2)*; Oic = O=C(O)[C@@H]1C[C@@H]2CCCC[C@@H]2N1; dIgl = N[C@@H](C(=O)O)C1Cc2ccccc2C1; Igl = N[C@H](C(=O)O)C1Cc2ccccc2C1; Hyp = O=C(O)[C@@H]1C[C@@H](O)CN1; NMeF = CN[C@@H](Cc1ccccc1)C(=O)O; 2Thi = N[C@@H](Cc1cccs1)C(=O)O

How the values were obtained:
Human B2 receptors = target: T1, Human B2 receptors (Homo sapiens, UniProt P30411); experiment: Human B2 binding, cloned receptor in CHO cell membranes, 3H-bradykinin
T1 construct: expressed in transfected cells; membranes used
T1 sequence (P30411 1-364 isoform P30411-2): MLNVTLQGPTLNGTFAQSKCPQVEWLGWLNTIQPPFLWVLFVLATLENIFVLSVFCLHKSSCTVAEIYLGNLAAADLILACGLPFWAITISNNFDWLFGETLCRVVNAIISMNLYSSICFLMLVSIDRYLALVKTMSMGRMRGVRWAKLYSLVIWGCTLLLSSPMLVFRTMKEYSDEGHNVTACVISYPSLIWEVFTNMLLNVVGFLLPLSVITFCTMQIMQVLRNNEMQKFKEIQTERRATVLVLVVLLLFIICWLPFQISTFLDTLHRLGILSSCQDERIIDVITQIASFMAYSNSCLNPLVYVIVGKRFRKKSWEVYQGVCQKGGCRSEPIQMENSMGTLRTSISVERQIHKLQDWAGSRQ
Description: Human B2 receptors were cloned and expressed in Chinese hamster ovary cells. RNA was isolated from human lung fibroblasts (CCD-16 LU obtained from the ATCC) using the method of Chirgwin et al (Biochemistry 18:5294 (1979)). The RNA was transcribed into cDNA using MMLV reverse transcriptase, the primer […] and the procedure of Maniatis (Molecular Cloning Cold Spring Harbor Laboratory (1982)). The human B2 receptor cDNA was selectively amplified using nested PCR. The first round PCR used the two primers […] and […] and Taq DNA polymerase (Promega). Twenty-five rounds of PCR were done using the following conditions: 94° C., 1 minute for denaturation, 50° C., 1 minute for annealing followed by 72° C., 3 minutes for extension. Excess primers were removed with a Centricon 30 miniconcentrator. A portion of this first round reaction was used as a template in a second round of PCR using the following primers […] and […]. The number of rounds of PCR and the conditions were the same as those used for the first round. The DNA obtained after this second round was digested with the restriction enzymes Hind III and Xba I using standard methodology. Cesium chloride-purified pRc/CMV (Invitrogen) was also digested with Hind III and Xba I using standard methodology. The products of the two digests were resolved on a 1% low melt agarose gel. The human B2 receptor DNA (approximately 1.1 kb) and the pRc/CMV DNA (approximately 5.5 kb) were excised from the gel. The gel slices containing these DNAs were heated at 65° C. and aliquots combined in a reaction containing T4 DNA ligase. The reaction was incubated overnight at 15° C.
An aliquot of this reaction was used to transform frozen competent E. coli DH5α cells (GibcoBRL). Transformants containing the human B2 receptor DNA were selected on LB+amp plates. One of the transformants was selected and the sequence of the human B2 receptor DNA insert determined using the Sequenase enzyme (United States Biochemical) according to the manufacturer's instructions. This sequence was compared to the sequence of Hess et al (Biochemical and Biophysical Research Communications 184:260 1992)). […] The human BK2 receptor-pRc/CMV plasmid was transfected into CHO-k1 cells using the Lipofectamine reagent (GibcoBRL).
Cells containing the receptor were grown to confluence and harvested by scraping into PBS and homogenized. Membranes were prepared by centrifugation in 25 mM TES pH6.8 containing 1 mM 1.10 Phenanthroline. The final pellet was resuspended in assay buffer (25 mM TES, 1 mM 1.10 Phenanthroline, 1 mM DTT, […] Captopril, 0.1% BSA pH=6.8) and frozen. […] Incubation was carried out at room temperature for 45 min. The assay was terminated by filtration through a polyethylenimine soaked G-A filter. Radioactivity was measured on a Wallac 1450 MicroBeta LSC.
The Kd for the receptor was determined by kinetic analysis of on and off rates utilizing a single exponential decay off rate. Ki 's for compounds were calculated using the following equation: Ki =IC50 /(1+[L]/Kd), where L=free ligand concentration.

B1 receptors = target: T2, B1 receptors (Oryctolagus cuniculus, UniProt P48748); experiment: B1 receptor bioassay, rabbit aorta strips contracted with des-Arg9-BK; type: cell-based; conditions: 50% reduction of sustained contraction to 10^-7 M des-Arg9-BK; read-out: Rabbit Aorta p IC50 B1 receptors (converted)
T2 construct: The thorax was opened and the thoracic aorta carefully removed; from tissue; host or cells: rabbit thoracic aorta spiral strips
T2 sequence (P48748 1-352): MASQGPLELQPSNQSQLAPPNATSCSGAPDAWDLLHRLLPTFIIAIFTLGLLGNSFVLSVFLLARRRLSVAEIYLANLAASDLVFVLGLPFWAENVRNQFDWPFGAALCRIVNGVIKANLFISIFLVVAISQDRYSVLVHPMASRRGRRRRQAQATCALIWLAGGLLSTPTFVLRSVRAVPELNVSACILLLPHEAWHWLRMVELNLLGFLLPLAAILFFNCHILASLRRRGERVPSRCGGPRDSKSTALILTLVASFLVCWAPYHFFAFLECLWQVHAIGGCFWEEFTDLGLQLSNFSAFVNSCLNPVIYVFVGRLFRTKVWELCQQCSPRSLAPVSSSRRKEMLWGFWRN
Method: Male New Zealand white rabbits, weight range 2-3 kg, were killed by an overdose of pentobarbital i.v. The thorax was opened and the thoracic aorta carefully removed. […] The tissues were placed under 1 gm isometric tension and allowed to equilibrate for 1H. At time 1h, a concentration-effect curve was constructed to the selective B1 agonist des-Arg^9 -BK. This was repeated at time 3 hours. […] Once the contraction was sustained, the compound to be assayed was applied to the tissue bath in a cumulative manner. The concentration of the compound which produced a 50% reduction of the sustained contraction was calculated. The negative logarithm of this concentration was calculated and expressed as the […].

isolated rat uterus = tested on: isolated rat uterus
Description: (§1) A change of one unit of pA2 value represents an order of magnitude change in potency.
(§2) On isolated smooth muscles, agonist potency is given as percent of BK potency; antagonist potency is given as pA2, and is underlined. In blood pressure assays, the number is the dose of peptide in micrograms that causes 50% reduction in the effect of BK intraarterially administered as a bolus mixture in a 500 g male rat; Ag indicates unquantitated agonist activity; Ant indicates unquantitated antagonist activity.

guinea pig ileum = tested on: guinea pig ileum
Description: as §1, §2

[1] = CHO clone S34f membranes, 0.3 nM 3H-Bradykinin, room temperature 45 min, read-out: Human Receptor Clone B2 receptor binding (Ki) (converted)

## N=C(N)NCCC[C@@H](N)C(=O)N[C@@H](CCCNC(=N)N)C(=O)N1CCC[C@H]1C(=O)N1C[C@H](O)C[C@H]1C(=O)NCC(=O)N[C@H](Cc1cccs1)C(=O)N[C@@H](CO)C(=O)N[C@@H](C(=O)N1[C@H](C(=O)N[C@@H](CCCNC(=N)N)C(=O)O)C[C@@H]2CCCC[C@@H]21)C1Cc2ccccc2C1 [Compound 31, DArg-Arg-Pro-Hyp-Gly-DThi-Ser-DIglb-Oic-Arg]
Human B2 receptors
  Ki: 0.01 nM
B1 receptors
  IC50: > 10000 nM

## N=C(N)NCCC[C@@H](N)C(=O)N[C@@H](CCCNC(=N)N)C(=O)N1CCC[C@H]1C(=O)N1C[C@H](O)C[C@H]1C(=O)NCC(=O)N[C@@H](Cc1cccs1)C(=O)N[C@@H](CO)C(=O)N[C@@H](C(=O)N1Cc2ccccc2C[C@H]1C(=O)N[C@@H](CCCNC(=N)N)C(=O)O)C1Cc2ccccc2C1 [Compound 22, DArg-Arg-Pro-Hyp-Gly-Thi-Ser-DIglb-Tic-Arg]
Isolated rat uterus
  Uterus Activity, antagonist potency given as pA2: 7.0
Guinea pig ileum
  Ileum Activity, antagonist potency given as pA2: 6.8
Human B2 receptors; [1]
  Ki: 0.0126 nM
B1 receptors
  IC50: 1780 nM

## N=C(N)NCCC[C@@H](N)C(=O)N[C@@H](CCCNC(=N)N)C(=O)N1CCC[C@H]1C(=O)N1C[C@H](O)C[C@H]1C(=O)NCC(=O)N[C@@H](Cc1cccs1)C(=O)N[C@@H](CO)C(=O)N1Cc2ccccc2C[C@@H]1C(=O)N(CC(=O)N[C@@H](CCCNC(=N)N)C(=O)O)C1Cc2ccccc2C1 [Compound 23, DArg-Arg-Pro-Hyp-Gly-Thi-Ser-DTic-Nigb-Arg]
Isolated rat uterus
  Uterus Activity, antagonist potency given as pA2: 8.3
Guinea pig ileum
  Ileum Activity, antagonist potency given as pA2: 7.2
Human B2 receptors; [1]
  Ki: 0.0158 nM
B1 receptors
  IC50: > 10000 nM

## N=C(N)NCCC[C@@H](N)C(=O)N[C@@H](CCCNC(=N)N)C(=O)N1CCC[C@H]1C(=O)N1C[C@H](O)C[C@H]1C(=O)NCC(=O)N[C@@H](Cc1cccs1)C(=O)N[C@@H](CO)C(=O)N(CC(=O)N1[C@H](C(=O)N[C@@H](CCCNC(=N)N)C(=O)O)C[C@@H]2CCCC[C@@H]21)C1Cc2ccccc2C1 [Compound 16, DArg-Arg-Pro-Hyp-Gly-Thi-Ser-Nigb-Oic-Arg]
Isolated rat uterus
  Uterus Activity, antagonist potency given as pA2: 6.8
Guinea pig ileum
  Ileum Activity, antagonist potency given as pA2: 7.0
Human B2 receptors; [1]
  Ki: 0.309 nM

## N=C(N)NCCC[C@H](NC(=O)[C@@H]1C[C@@H]2CCCC[C@@H]2N1C(=O)[C@H](NC(=O)[C@H](CO)NC(=O)[C@@H](NC(=O)CNC(=O)[C@@H]1C[C@@H](O)CN1C(=O)[C@@H]1CCCN1C(=O)[C@H](CCCNC(=N)N)NC(=O)[C@@H](CCCNC(=N)N)NC(=O)C12CC3CC(CC(C3)C1)C2)C1Cc2ccccc2C1)C1Cc2ccccc2C1)C(=O)O [Compound 2, Aca-DArg-Arg-Pro-Hyp-Gly-Iglb-Ser-DIg lb-Oic-Arg]
Isolated rat uterus
  Uterus Activity, antagonist potency given as pA2: 7.5
Guinea pig ileum
  Ileum Activity, antagonist potency given as pA2: 7.8
Human B2 receptors; [1]
  Ki: 0.0447 nM
B1 receptors
  IC50: 1780 nM

## Cc1ccc(C[C@@H](NC(=O)CNC(=O)[C@@H]2C[C@@H](O)CN2C(=O)[C@@H]2CCCN2C(=O)[C@H](CCCNC(=N)N)NC(=O)[C@H](N)CCCNC(=N)N)C(=O)N[C@@H](CO)C(=O)N[C@@H](C(=O)N2[C@H](C(=O)N[C@@H](CCCNC(=N)N)C(=O)O)C[C@@H]3CCCC[C@@H]32)C2Cc3ccccc3C2)c(C)c1 [Compound 27, DArg-Arg-Pro-Hyp-Gly-DDMF-Ser-DIglb-Oic-Arg]
Isolated rat uterus
  Uterus Activity, antagonist potency given as pA2: 8.0
Guinea pig ileum
  Ileum Activity, antagonist potency given as pA2: 6.9
Human B2 receptors; [1]
  Ki: 0.178 nM
B1 receptors
  IC50: > 10000 nM

## CN(C(=O)[C@H](CCCNC(=N)N)NC(=O)[C@H](N)CCCNC(=N)N)[C@@H](Cc1ccccc1)C(=O)N1C[C@H](O)C[C@H]1C(=O)NCC(=O)N[C@H](C(=O)N[C@@H](CO)C(=O)N[C@@H](C(=O)N1[C@H](C(=O)N[C@@H](CCCNC(=N)N)C(=O)O)C[C@@H]2CCCC[C@@H]21)C1Cc2ccccc2C1)C1Cc2ccccc2C1 [Compound 45, DArg-Arg-NMF-Hyp-Gly-Iglb-Ser-DIglb-Oic-Arg] (H-[dR]R[NMeF][Hyp]G[Igl]S[dIgl][Oic]R-OH)
Human B2 receptors; [1]
  Ki: 0.141 nM
B1 receptors
  IC50: 2880 nM

## N=C(N)NCCC[C@H](NC(=O)[C@@H]1C[C@@H]2CCCC[C@@H]2N1C(=O)[C@H](NC(=O)[C@H](CO)NC(=O)[C@H](Cc1cccs1)NC(=O)CNC(=O)[C@@H]1C[C@@H](O)CN1C(=O)[C@@H]1CCCN1C(=O)[C@@H](N)CCCNC(=N)N)C1Cc2ccccc2C1)C(=O)O [Compound 5, Arg-Pro-Hyp-Gly-Thi-Ser-DIglb-Oic-Arg] (H-RP[Hyp]G[2Thi]S[dIgl][Oic]R-OH)
Guinea pig ileum
  Ileum Activity, antagonist potency given as pA2: 7.7
Human B2 receptors; [1]
  Ki: 0.0692 nM
B1 receptors
  IC50: 1550 nM

## N=C(N)NCCC[C@H](NC(=O)[C@@H]1C[C@@H]2CCCC[C@@H]2N1C(=O)[C@H](NC(=O)[C@H](COS(=O)(=O)O)NC(=O)[C@H](Cc1cccs1)NC(=O)CNC(=O)[C@@H]1C[C@@H](O)CN1C(=O)[C@@H]1CCCN1C(=O)[C@H](CCCNC(=N)N)NC(=O)[C@@H](CCCNC(=N)N)NC(=O)C12CC3CC(CC(C3)C1)C2)C1Cc2ccccc2C1)C(=O)O [Compound 61, Aca-DArg-Arg-Pro-Hyp-Gly-Thi-Ser(SO)-DIglb-Oic-Arg]
Guinea pig ileum
  Ileum Activity, antagonist potency given as pA2: 7.5
Human B2 receptors; [1]
  Ki: 4.07 nM
B1 receptors
  IC50: 4170 nM

## N=C(N)NCCC[C@H](NC(=O)[C@@H]1C[C@@H]2CCCC[C@@H]2N1C(=O)[C@H](NC(=O)[C@H](CO)NC(=O)[C@H](Cc1ccccc1)NC(=O)CNC(=O)[C@@H]1C[C@@H](O)CN1C(=O)[C@@H]1CCCN1C(=O)[C@H](CCCNC(=N)N)NC(=O)[C@@H](CCCNC(=N)N)NC(=O)C12CC3CC(CC(C3)C1)C2)C1Cc2ccccc2C1)C(=O)O [Compound 53, Aca-DArg-Arg-Pro-Hyp-Gly-Phe-Ser-DIglb-Oic-Arg] (Adamantane1carbonyl-[dR]RP[Hyp]GFS[dIgl][Oic]R-OH)
Isolated rat uterus
  Uterus Activity, antagonist potency given as pA2: 8.2
Guinea pig ileum
  Ileum Activity, antagonist potency given as pA2: 7.4
Human B2 receptors; [1]
  Ki: 0.0141 nM
B1 receptors
  IC50: 1260 nM
